{"source": "paper PMC5958064", "about": "“Single cell analysis of kynurenine and System L amino acid transport in T cells” (Nature Communications, 2018)", "key": {"AHR [1]": {"test_system": "AHR", "assay": "Cyp1a1 mRNA induction in TH17cond CD4+ T cells (qPCR)", "assay_type": "cell-based, mouse", "method": "To activate primary T cells, spleens and/or lymph nodes (LN) were removed, disaggregated and red blood cells lysed. Cells were stimulated with 1 μg/ml of the CD3 monoclonal antibody (2C11) and 2 μg/ml anti-CD28 (37.51; ebiosciences) to trigger the TCR. Naive CD4^+ T cells and 24 h TCR-activated CD4^+ T cells were purified using CD4 isolation kit (EasySep, STEMCELL Technologies). […] Proleukin, Novartis) for a further 3–5 days. To generate TH1s and TH17s, murine CD8^+ T cells were depleted from lymph node preparations using CD8 depletion kit (EasySep, STEMCELL Technologies). […] RnD Systems) and IL-2 (20 ng/ml) and for TH17s; cytokines IL-6 (50 ng/ml, Peprotech), IL-1β (10 ng/ml, Peprotech) and TGFβ (2 ng/ml, Peprotech). TH17s were cultured in IMDM (Gibco). All other cells were cultured in RPMI 1640 containing L-glutamine (Gibco). Culture media was supplemented with 10% FBS (Gibco), 50 μM β-mercaptoethanol (β-ME, Sigma) and penicillin/streptomycin (Gibco). Cells were incubated at 37 °C with 5% CO2 throughout. […] RNA was purified using the RNeasy RNA purification Mini Kit (Qiagen) (Genomic DNA was digested with RNase-free DNase (Qiagen) following manufacturer instructions) and reverse-transcribed using the iScript cDNA synthesis kit (BioRad). Quantitative PCR was performed in 96-well plate format using iQ SYBR Green-based detection (BioRad) on a BioRad iCycler."}, "AHR [2]": {"test_system": "AHR", "parameters": "method as in PMID 25657351, PMID 29279331", "details": "cited from earlier work"}, "mTORC1": {"test_system": "mTORC1", "assay": "mTORC1 activity in CTLs after leucine removal and refeeding", "assay_type": "cell-based, mouse", "details": "CTLs removed from leucine, refed leucine 100uM ± Kyn 100uM", "description": "page 13: • We […] would not be able to measure the levels of in vivo ky nurenine uptake with this assay (for the reasons explained above). However, this is a pertinent question, and will relate to the total amount of available kynurenine compared to alternative System L substrates. The detailed micro-environmental metabolomics techniques required to perform this kind of analysis is beyond the scope of this paper, however we have tried to address this point in the discussion. Second, did CD4 T cells (Foxp3-) and Tregs (Foxp3+) from Lm-infected mice also i mport Ky n? […] This, also, is a very interesting aspect, however we feel that it is beyond the scope of this paper. Point 4: Data presented in Figures 4 & 5 show convincingly that SLC7A5 ablation in CD4 T cells abolishes Kyn uptake in CD4 T cells selectively and that imported Kyn triggers AhR signaling in CD4 T cells, respectively. However, no data is presented to address the biological significance of these findings, specifically regarding the reported ability of Kyn to suppress Th1 responses (e.g. IFNg production) or to reinforce Treg-mediated suppression of effector T cells via AhR signaling. […]"}, "[3]": {"biological_target": "T1, System L transporter SLC7A5 (Mus musculus, UniProt Q9Z127)", "T1 construct": "endogenous in cells", "T1 sequence (Q9Z127 whole entry)": "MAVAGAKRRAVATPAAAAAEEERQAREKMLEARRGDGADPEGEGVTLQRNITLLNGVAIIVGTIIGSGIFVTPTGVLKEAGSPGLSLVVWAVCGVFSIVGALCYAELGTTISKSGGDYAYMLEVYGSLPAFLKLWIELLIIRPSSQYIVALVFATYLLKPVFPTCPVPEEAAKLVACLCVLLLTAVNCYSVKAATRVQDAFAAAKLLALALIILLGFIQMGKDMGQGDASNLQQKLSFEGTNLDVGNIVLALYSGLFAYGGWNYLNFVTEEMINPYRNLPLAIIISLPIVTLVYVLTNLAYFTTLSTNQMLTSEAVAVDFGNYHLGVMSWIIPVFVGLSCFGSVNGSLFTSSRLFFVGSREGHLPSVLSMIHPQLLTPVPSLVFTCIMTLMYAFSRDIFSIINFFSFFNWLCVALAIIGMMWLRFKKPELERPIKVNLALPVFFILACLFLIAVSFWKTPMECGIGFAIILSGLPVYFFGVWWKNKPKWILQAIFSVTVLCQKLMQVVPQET", "T1 sequence (P10852 whole entry partner)": "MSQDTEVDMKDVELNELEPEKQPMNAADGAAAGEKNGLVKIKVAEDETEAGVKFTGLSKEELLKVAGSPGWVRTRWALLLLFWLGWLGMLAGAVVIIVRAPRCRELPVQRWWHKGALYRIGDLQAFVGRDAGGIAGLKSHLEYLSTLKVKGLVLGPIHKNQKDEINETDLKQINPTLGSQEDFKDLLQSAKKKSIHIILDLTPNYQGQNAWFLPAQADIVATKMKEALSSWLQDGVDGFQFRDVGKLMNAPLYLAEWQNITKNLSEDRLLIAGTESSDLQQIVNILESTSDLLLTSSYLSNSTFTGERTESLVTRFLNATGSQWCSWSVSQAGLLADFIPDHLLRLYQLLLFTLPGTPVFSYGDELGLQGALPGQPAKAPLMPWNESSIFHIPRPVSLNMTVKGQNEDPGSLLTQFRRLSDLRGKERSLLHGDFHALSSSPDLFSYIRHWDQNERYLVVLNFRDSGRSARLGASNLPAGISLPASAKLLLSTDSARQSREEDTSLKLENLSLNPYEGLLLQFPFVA", "assay": "Flow cytometry kynurenine uptake assay (450 nm fluorescence) in T cells", "assay_type": "cell-based", "details": "for IC50: 37 °C; for IC50 / effect on kynurenine transport (450 nm fluorescence): 4 min; for effect on kynurenine transport ex vivo: D7 rLM-infected CD8+ T cells; for effect on kynurenine transport ex vivo / effect on kynurenine transport (450 nm fluorescence): BCH 10 mM, Leu 5 mM, Lys 5 mM; for effect on kynurenine transport (450 nm fluorescence): TCR-stimulated CD8+ T cells or CTLs", "description": "For cell surface staining, antibodies conjugated to FITC, PE, APC, Alexafluor 647 (A647), APC-efluor780 (APCe780), and PerCPCy5.5 were obtained from either BD Pharmingen, eBioscience or Biolegend. Fc receptors were blocked using Fc Block (BD Pharmingen). Antibody clones used were: CD4 (RM4-5), CD8a (53-6.7), TCRβ (H57-597), CD44 (IM7), CD45.1 (A20), CD45.2 (104) and CD98 (RC388). Cells were fixed using 1% paraformaldehyde. Standard intracellular cytokine staining protocols were followed for IFNγ (clone XMG1.2; Biolegend) staining. Data were acquired on a LSR Fortessa II with DIVA software or a FACSVerse flow cytometer with FACSuite software (BD Biosciences) and analysed using FlowJo software version 9.9.5 (TreeStar).\nStart with at least 1 × 10^6 cells per condition, to obtain at least 200,000 events analysed by flow cytometry at the end of the protocol. […] If required, surface cell antibody staining should be performed prior to uptake assay protocol. This may be performed at room temperature or 4 °C, however test samples must be warmed to 37 °C, e.g. in water bath, prior to kynurenine uptake. (As with all multi-parameter flow cytometry, appropriate antibody staining controls must also be performed.) Samples can be fixed immediately after uptake assay by addition of 4% (vol/vol) paraformaldehyde (PFA; to a final concentration of 1%) for 30 min at room temperature.\nFor kynurenine uptake assay; pre-warm kynurenine (800 μM, in HBSS), BCH (40 mM, in HBSS) and lysine (20 mM, HBSS) and HBSS to 37 °C. After surface antibody staining of samples, resuspend cells in 200 μl warmed HBSS (1–5 × 10^6 cells in FACS tubes, or scale accordingly into plates). Keep cells in water bath at 37 °C. Add 100 μl of HBSS, or BCH or lysine to appropriate samples. Add 100 μl HBSS to no kynurenine controls (final volume 400 μl). Finally, add 100 μl kynurenine to appropriate samples. Stop uptake after 4 min by adding 125 μl 4% PFA for 30 min at room temperature, in the dark. The final concentrations for uptake assay are: 200 μM kynurenine; +/-10 mM BCH; +/-5 mM lysine. After fixation, wash cells twice in PBS/0.5% BSA and resuspend in PBS/0.5% BSA prior to acquisition on flow cytometer. The 405 nm laser and 450/50 BP filter are used for kynurenine fluorescence detection.\nTo monitor kynurenine uptake in live cells, acquire data on flow cytometer immediately following addition of kynurenine and plot fluorescence against time."}, "[4]": {"biological_target": "T1, System L transporter SLC7A5", "assay": "Radiolabelled 3H-kynurenine uptake in T cells", "assay_type": "cell-based", "details": "compared with kynurenine Km ~200 μM", "method": "To activate primary T cells, spleens and/or lymph nodes (LN) were removed, disaggregated and red blood cells lysed. Cells were stimulated with 1 μg/ml of the CD3 monoclonal antibody (2C11) and 2 μg/ml anti-CD28 (37.51; ebiosciences) to trigger the TCR. Naive CD4^+ T cells and 24 h TCR-activated CD4^+ T cells were purified using CD4 isolation kit (EasySep, STEMCELL Technologies). […] Proleukin, Novartis) for a further 3-5 days. To generate TH1s and TH17s, murine CD8^+ T cells were depleted from lymph node preparations using CD8 depletion kit (EasySep, STEMCELL Technologies). […] RnD Systems) and IL-2 (20 ng/ml) and for TH17s; cytokines IL-6 (50 ng/ml, Peprotech), IL-1β (10 ng/ml, Peprotech) and TGFβ (2 ng/ml, Peprotech). TH17s were cultured in IMDM (Gibco). All other cells were cultured in RPMI 1640 containing L-glutamine (Gibco). Culture media was supplemented with 10% FBS (Gibco), 50 μM β-mercaptoethanol (β-ME, Sigma) and penicillin/streptomycin (Gibco). Cells were incubated at 37 °C with 5% CO2 throughout. […] Cells were pelleted below the oil, the aqueous supernatant solution, followed by the silicon oil/dibutyl phthalate mixture was aspirated, and the cell pellet underneath resuspended in 200 μl NaOH (0.5 M) and β-radioactivity measured by liquid scintillation counting in a Beckman LS 6500 Multi-Purpose Scintillation Counter (Beckman Coulter). […] Where indicated, the sodium free buffer was prepared using TMACl as described in Baird et al.[35] Data are expressed as molecules radiotracer per cell per minute. […] All other chemicals were obtained from Sigma."}}}
{"smiles": "Cc1ccccc1N=Nc1ccc(NC(=O)c2ccnn2C)c(C)c1", "note": "[CH223191]", "values": [{"measurement": "effect on kynurenine-induced Cyp1A1 mRNA", "setting": "AHR [1]; D3 TH17cond cells, kynurenine 10 μM 2 h, CH223191 30 μM", "value": "completely blocked"}]}
{"smiles": "O=Cc1c2[nH]c3ccccc3c2cc2[nH]c3ccccc3c12", "note": "[FICZ, 6-formylindolo[3,2-b]carbazole]", "values": [{"measurement": "Cyp1a1 mRNA induction, D3 versus D5 post activation", "setting": "AHR [1]; TH17cond CD4+ T cells, kynurenine 100 μM or FICZ 300 nM, 2 h", "value": "equivalent on D3 and D5"}, {"measurement": "concentrations needed to activate the AHR", "setting": "AHR [2]", "value": "pM/nM range"}]}
{"smiles": "Clc1cc2c(cc1Cl)Oc1cc(Cl)c(Cl)cc1O2", "note": "[TCDD, 2,3,7,8-tetrachlorodibenzo-p-dioxin]", "values": [{"measurement": "concentrations needed to activate the AHR", "setting": "AHR [2]", "value": "pM/nM range"}]}
{"smiles": "CC(C)C[C@H](N)C(=O)O", "note": "[leucine]", "values": [{"measurement": "effect on mTORC1 activity", "setting": "mTORC1", "value": "establishes mTORC1 activity"}, {"measurement": "IC50", "setting": "[3]; CTL", "value": "411 ± 30", "unit": "µM"}, {"measurement": "IC50", "setting": "[3]; D7 rLM CD8+ effector T cells from spleen, ex vivo", "value": "168 ± 38", "unit": "µM"}, {"measurement": "effect on kynurenine transport ex vivo", "setting": "[3]", "value": "blocked"}, {"measurement": "effect on kynurenine transport (450 nm fluorescence)", "setting": "[3]", "value": "blocks kynurenine transport to comparable levels as BCH"}, {"measurement": "Km of other System L substrates relative to Km of kynurenine", "setting": "[4]", "value": "~ 10 fold less"}]}
{"smiles": "NCCCC[C@H](N)C(=O)O", "note": "[lysine]", "values": [{"measurement": "effect on kynurenine uptake", "setting": "[3]; CD3/CD28 activated wild-type T cells in co-culture, 5 mM lysine, BCH", "value": "did not inhibit kynurenine uptake"}, {"measurement": "effect on kynurenine transport ex vivo", "setting": "[3]", "value": "not by lysine competition"}, {"measurement": "effect on kynurenine transport (450 nm fluorescence)", "setting": "[3]", "value": "does not affect kynurenine transport"}]}
{"smiles": "CSCC[C@H](N)C(=O)O", "note": "[methionine]", "values": [{"measurement": "Km of other System L substrates relative to Km of kynurenine", "setting": "[4]", "value": "~ 10 fold less"}]}
{"smiles": "N[C@@H](Cc1c[nH]c2ccccc12)C(=O)O", "note": "[tryptophan]", "values": [{"measurement": "Km of other System L substrates relative to Km of kynurenine", "setting": "[4]", "value": "~ 10 fold less"}]}
